Measurements reported in US20260217767A1, “NOVEL A4B7 THIOETHER PEPTIDE DIMER ANTAGONISTS” (Protagonist Therapeutics, Inc., priority 2014, published 2026).
Where a SMILES comes first, the peptide text is derived from it.

target: T1, rh integrin α4β7 (Homo sapiens, UniProt P13612+P26010); test: α4β7-MAdCAM Competition ELISA; format: binding; conditions: thioether monomer peptides, Table 6; read-out: ELISA A4B7
T1 construct: purchased R&D Systems 5397-A30
T1 sequence (P13612 34-977 limits assumed): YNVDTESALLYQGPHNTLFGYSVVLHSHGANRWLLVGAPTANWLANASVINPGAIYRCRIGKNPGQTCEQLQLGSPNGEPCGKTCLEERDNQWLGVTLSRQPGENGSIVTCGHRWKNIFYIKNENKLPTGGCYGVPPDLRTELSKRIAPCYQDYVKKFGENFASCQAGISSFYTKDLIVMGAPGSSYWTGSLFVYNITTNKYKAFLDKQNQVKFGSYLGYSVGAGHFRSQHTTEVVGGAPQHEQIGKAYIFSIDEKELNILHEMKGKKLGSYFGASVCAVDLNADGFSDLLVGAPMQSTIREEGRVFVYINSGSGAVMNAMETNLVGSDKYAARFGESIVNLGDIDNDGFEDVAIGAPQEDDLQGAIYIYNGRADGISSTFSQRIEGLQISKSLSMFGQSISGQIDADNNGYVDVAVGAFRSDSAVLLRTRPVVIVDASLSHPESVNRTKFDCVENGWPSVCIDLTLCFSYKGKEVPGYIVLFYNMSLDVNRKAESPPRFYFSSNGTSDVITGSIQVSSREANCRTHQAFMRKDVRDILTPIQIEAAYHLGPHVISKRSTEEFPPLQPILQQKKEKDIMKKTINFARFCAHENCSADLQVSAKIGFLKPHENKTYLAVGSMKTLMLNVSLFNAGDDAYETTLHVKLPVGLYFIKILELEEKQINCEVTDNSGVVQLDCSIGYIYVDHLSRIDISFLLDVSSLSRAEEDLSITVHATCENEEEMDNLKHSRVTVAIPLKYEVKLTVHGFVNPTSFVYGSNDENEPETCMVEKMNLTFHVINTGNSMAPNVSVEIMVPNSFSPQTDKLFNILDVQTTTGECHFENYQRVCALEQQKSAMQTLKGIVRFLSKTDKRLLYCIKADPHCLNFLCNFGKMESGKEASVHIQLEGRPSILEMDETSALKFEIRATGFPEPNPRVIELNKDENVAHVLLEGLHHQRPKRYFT
T1 sequence (P26010 20-723 limits assumed): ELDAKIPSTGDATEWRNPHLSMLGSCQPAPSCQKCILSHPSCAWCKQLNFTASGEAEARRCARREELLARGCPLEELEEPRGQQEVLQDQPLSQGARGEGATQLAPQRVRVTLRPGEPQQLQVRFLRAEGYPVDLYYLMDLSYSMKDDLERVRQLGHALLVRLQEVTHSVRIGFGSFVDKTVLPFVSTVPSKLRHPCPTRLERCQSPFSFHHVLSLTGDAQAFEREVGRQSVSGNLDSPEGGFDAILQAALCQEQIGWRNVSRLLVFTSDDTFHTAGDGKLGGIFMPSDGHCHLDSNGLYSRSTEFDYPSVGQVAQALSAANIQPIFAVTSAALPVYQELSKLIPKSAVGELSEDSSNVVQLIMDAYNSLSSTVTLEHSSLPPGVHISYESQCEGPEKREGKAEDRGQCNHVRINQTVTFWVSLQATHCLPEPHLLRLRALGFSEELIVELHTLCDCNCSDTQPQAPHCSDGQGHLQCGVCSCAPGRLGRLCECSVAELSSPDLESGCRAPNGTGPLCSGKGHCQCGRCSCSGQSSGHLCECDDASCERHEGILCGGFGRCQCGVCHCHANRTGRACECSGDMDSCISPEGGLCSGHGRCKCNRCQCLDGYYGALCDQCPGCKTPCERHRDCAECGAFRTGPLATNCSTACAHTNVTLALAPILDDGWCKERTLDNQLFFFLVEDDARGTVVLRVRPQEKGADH
Description: α4β7-MAdCAM Competition ELISA A nickel coated plate (Pierce #15442) was coated with rh integrin α4β[…] Systems #5397-A30) at 800 ng/well and incubated at room temperature with shaking for 1 hr. The solution was then removed by shaking and blocked with assay buffer (50 mM Tris-HCl pH7.6, 150 mM NaCl, 1 mM MnCl2 or MgCl2, 0.05% Tween-20 and 0.5% BSA) at 250 ul/well. The plate was then incubated at room temperature for 1 hr. Each well was washed 3 times with wash buffer (50 mM Tris-HCl pH7.6, 100 mM NaCl, 1 mM MnCl2 or MgCl2, 0.05% Tween-20). To each well was added 25 ul of a serial dilution (3-fold dilutions in assay buffer) of peptides starting at 20 μM. 25 ul of recombinant human MAdCAM-1 (R&D Systems #6056-MC) was then added to each well at a fixed concentration 20 nM. The final starting peptide concentration was 10 μM, and the final MAdCAM-1 concentration was 10 nM. The plates were then incubated at room temperature for 1 hr to reach binding equilibrium. The wells were then washed three times with wash buffer. 50 ul of mouse anti-human IgG1-HRP (Invitrogen #A10648) diluted in 1:2000 in assay buffer was then added to each well. The wells were incubated at room temperature for 45 min with shaking. The wells were then washed 3 times with wash buffer. 100 ul of TMB were then added to each well and closely observe during development time. The reaction was stopped with 2N H2SO4 and absorbance was read at 450 nm.

SMILES	IC50
CC(C)C[C@H](NC(=O)[C@@H](CCC(=O)O)NC(=O)[C@H](Cc1c[nH]c2ccccc12)NC(=O)[C@H]1NC(=O)[C@H](CC(C)C)NC(=O)[C@H]([C@@H](C)O)NC(=O)[C@H](CC(=O)O)NC(=O)[C@H](CO)NC(=O)[C@H](CCCNC(=N)N)N(C)C(=O)c2ccccc2CSC1(C)C)C(N)=O [compound 99] (HELM PEPTIDE1{[meR].S.D.T.L.[Pen].W.[dE].L.[am]}|CHEM1{[O=C(c1ccccc1C[*:2])[*:1]]}$PEPTIDE1,CHEM1,1:R1-1:R1|PEPTIDE1,CHEM1,6:R3-1:R2$$$V2.0)	< 0.025 µM
CC(=O)NCCCC[C@@H](C(N)=O)N(C)C(=O)[C@H](Cc1ccc(O)cc1)NC(=O)[C@H](Cc1c[nH]c2ccccc12)NC(=O)[C@H]1NC(=O)[C@H](CC(C)C)NC(=O)[C@H]([C@@H](C)O)NC(=O)[C@H](CC(=O)O)NC(=O)[C@H](CO)NC(=O)[C@H](CCCNC(=N)N)N(C)C(=O)c2ccccc2CSC1(C)C [compound 85] (HELM PEPTIDE1{[meR].S.D.T.L.[Pen].W.Y.[CN([C@@H](CCCCN[*:3])C(=O)[*:2])[*:1]].[am]}|PEPTIDE2{[ac]}|CHEM1{[O=C(c1ccccc1C[*:2])[*:1]]}$PEPTIDE1,PEPTIDE2,9:R3-1:R2|PEPTIDE1,CHEM1,1:R1-1:R1|PEPTIDE1,CHEM1,6:R3-1:R2$$$V2.0)	< 0.025 µM
CC(C)C[C@@H]1NC(=O)[C@H]([C@@H](C)O)NC(=O)[C@H](CC(=O)O)NC(=O)[C@H](CO)NC(=O)[C@H](CCCNC(=N)N)N(C)C(=O)C(C)(C)SC[C@@H](C(=O)N[C@@H](Cc2c[nH]c3ccccc23)C(=O)N[C@H](CCCCN)C(N)=O)NC1=O [compound 52]	> 1 µM
CC(C)C[C@@H]1NC(=O)[C@H]([C@@H](C)O)NC(=O)[C@H](CC(=O)O)NC(=O)[C@H](CO)NC(=O)[C@H](CCCNC(=N)N)N(C)C(=O)C(C)SC(C)(C)[C@@H](C(=O)N[C@@H](Cc2c[nH]c3ccccc23)C(=O)N[C@H](CCCCN)C(N)=O)NC1=O (single isomer, unassigned) [compound 54]	> 1 µM
CC(=O)NCCCC[C@@H](NC(=O)[C@H](CCC(=O)O)NC(=O)[C@H](Cc1ccc(O)cc1)NC(=O)[C@H]1NC(=O)[C@H](CC(C)C)NC(=O)[C@H]([C@@H](C)O)NC(=O)[C@H](CC(=O)O)NC(=O)[C@H](CO)NC(=O)[C@H](CCCNC(=N)N)N(C)C(=O)c2ccccc2CSC1(C)C)C(N)=O [compound 90] (HELM PEPTIDE1{[meR].S.D.T.L.[Pen].Y.E.[dK].[am]}|PEPTIDE2{[ac]}|CHEM1{[O=C(c1ccccc1C[*:2])[*:1]]}$PEPTIDE1,PEPTIDE2,9:R3-1:R2|PEPTIDE1,CHEM1,1:R1-1:R1|PEPTIDE1,CHEM1,6:R3-1:R2$$$V2.0)	< 0.025 µM
CC(C)C[C@@H]1NC(=O)[C@H]([C@@H](C)O)NC(=O)[C@H](CC(=O)O)NC(=O)[C@H](CO)NC(=O)[C@H](CCCNC(=N)N)N(C)C(=O)c2ccccc2CSC(C)(C)[C@@H](C(=O)N[C@@H](Cc2c[nH]c3ccccc23)C(=O)N[C@H](CCC(=O)O)C(=O)N[C@@H](CCC(N)=O)C(N)=O)NC1=O [compound 103] (HELM PEPTIDE1{[meR].S.D.T.L.[Pen].W.[dE].Q.[am]}|CHEM1{[O=C(c1ccccc1C[*:2])[*:1]]}$PEPTIDE1,CHEM1,1:R1-1:R1|PEPTIDE1,CHEM1,6:R3-1:R2$$$V2.0)	< 0.025 µM
CCCC[C@@H]1NC(=O)[C@H]([C@@H](C)O)NC(=O)[C@H](CC(=O)O)NC(=O)[C@H](CO)NC(=O)[C@H](CCCNC(=N)N)N(C)C(=O)c2ccccc2CSC(C)(C)[C@@H](C(=O)N[C@@H](Cc2c[nH]c3ccccc23)C(=O)N[C@@H](CCC(=O)O)C(=O)N[C@H](CCCCNC(C)=O)C(N)=O)NC1=O [compound 86] (HELM PEPTIDE1{[meR].S.D.T.[Nle].[Pen].W.E.[dK].[am]}|PEPTIDE2{[ac]}|CHEM1{[O=C(c1ccccc1C[*:2])[*:1]]}$PEPTIDE1,PEPTIDE2,9:R3-1:R2|PEPTIDE1,CHEM1,1:R1-1:R1|PEPTIDE1,CHEM1,6:R3-1:R2$$$V2.0)	< 0.025 µM
CC(C)C[C@@H]1NC(=O)[C@H]([C@@H](C)O)NC(=O)[C@H](CC(=O)O)NC(=O)[C@H](CO)NC(=O)[C@H](CCCNC(=N)N)N(C)C(=O)c2ccccc2CSC(C)(C)[C@@H](C(=O)N[C@@H](Cc2c[nH]c3ccccc23)C(=O)N[C@H](CCC(=O)O)C(=O)N[C@H](Cc2c[nH]cn2)C(N)=O)NC1=O [compound 109] (HELM PEPTIDE1{[meR].S.D.T.L.[Pen].W.[dE].[dH].[am]}|CHEM1{[O=C(c1ccccc1C[*:2])[*:1]]}$PEPTIDE1,CHEM1,1:R1-1:R1|PEPTIDE1,CHEM1,6:R3-1:R2$$$V2.0)	< 0.025 µM
CC(=O)NCCCC[C@@H](NC(=O)[C@@H](CCC(=O)O)NC(=O)[C@H](Cc1ccccc1)NC(=O)[C@H]1NC(=O)[C@H](CC(C)C)NC(=O)[C@H]([C@@H](C)O)NC(=O)[C@H](CC(=O)O)NC(=O)[C@H](CO)NC(=O)[C@H](CCCNC(=N)N)N(C)C(=O)c2ccccc2CSC1(C)C)C(N)=O [compound 87] (HELM PEPTIDE1{[meR].S.D.T.L.[Pen].F.[dE].[dK].[am]}|PEPTIDE2{[ac]}|CHEM1{[O=C(c1ccccc1C[*:2])[*:1]]}$PEPTIDE1,PEPTIDE2,9:R3-1:R2|PEPTIDE1,CHEM1,1:R1-1:R1|PEPTIDE1,CHEM1,6:R3-1:R2$$$V2.0)	< 0.025 µM
CC(=O)NCCCC[C@@H](NC(=O)C[C@H](CCC(=O)O)NC(=O)[C@H](Cc1c[nH]c2ccccc12)NC(=O)[C@H]1NC(=O)[C@H](CC(C)C)NC(=O)[C@H]([C@@H](C)O)NC(=O)[C@H](CC(=O)O)NC(=O)[C@H](CO)NC(=O)[C@H](CCCNC(=N)N)N(C)C(=O)c2ccccc2CSC1(C)C)C(N)=O [compound 83] (HELM PEPTIDE1{[meR].S.D.T.L.[Pen].W.[O=C(O)CC[C@@H](CC(=O)[*:2])N[*:1]].[dK].[am]}|PEPTIDE2{[ac]}|CHEM1{[O=C(c1ccccc1C[*:2])[*:1]]}$PEPTIDE1,PEPTIDE2,9:R3-1:R2|PEPTIDE1,CHEM1,1:R1-1:R1|PEPTIDE1,CHEM1,6:R3-1:R2$$$V2.0)	< 0.025 µM
COC(=O)CC[C@H](NC(=O)[C@H](Cc1c[nH]c2ccccc12)NC(=O)[C@H]1NC(=O)[C@H](CC(C)C)NC(=O)[C@H]([C@@H](C)O)NC(=O)[C@H](CC(=O)O)NC(=O)[C@H](CO)NC(=O)[C@H](CCCNC(=N)N)N(C)C(=O)c2ccccc2CSC1(C)C)C(=O)N[C@H](CCCCN)C(N)=O [compound 115] (HELM PEPTIDE1{[meR].S.D.T.L.[Pen].W.E.[dK].[am]}|CHEM1{[CO[*:1]]}|CHEM2{[O=C(c1ccccc1C[*:2])[*:1]]}$PEPTIDE1,CHEM1,8:R3-1:R1|PEPTIDE1,CHEM2,1:R1-1:R1|PEPTIDE1,CHEM2,6:R3-1:R2$$$V2.0)	< 0.025 µM
